Among the data in PubChem BioAssay AID1353 (Sanford-Burnham Center for Chemical Genomics, 2008) are survival values, retold here.

The source made the active and inactive calls.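 How the source made its calls: active means ATP loss reduced by over 30% versus thapsigargin-only wells, at any thapsigargin dose tested; inactive means the rest.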

The test relates to C17.2 differentiated neurons, thapsigargin death, ATPlite, 24 h. Briefly: rescue of C17.2 neurons from thapsigargin, SAR follow-up, cell-based, differentiated mouse neural stem C17.2, ATP luminescence (AID 1353). Particulars: at 25 µM, stronger effect = higher value.
The mark [1] stands for this setting: measured here: survival at thapsigargin 5 uM.
Setting [2] is: measured here: survival at thapsigargin 15 uM.

For `COc1ccc(C2CC(=O)C3=C(C2)Nc2ccccc2NC3c2cccc(C(F)(F)F)c2)cc1OC` (stereo not drawn), the survival is 5% (inactive). Under setting [1], this molecule yielded a survival of 59%. Moreover, the survival under setting [2] was 0%.
In the same order, the values of `CCOc1cc(C2Nc3ccccc3NC3=C2C(=O)CC(c2ccc(OC)cc2)C3)cc(Cl)c1O` (stereo not drawn) are 1% (inactive), 79% and 0%.
In the same order, the values of `COc1ccc(C2CC(=O)C3=C(C2)Nc2ccccc2NC3c2cc(C)ccc2C)cc1` (stereo not drawn) are 2% (inactive), 69% and 0%.
In the same order, the values of `CSc1ccc(C2Nc3ccccc3NC3=C2C(=O)CC(c2ccccc2)C3)cc1` (stereo not drawn) are 2% (inactive), 86% and 0%.
As for `COc1ccc(C2CC(=O)C3=C(C2)Nc2ccccc2NC3c2cccc(Oc3ccccc3)c2)cc1OC` (stereo not drawn), the survival is 50%. In addition, under setting [1], the survival came out at 68%. Under setting [2], this molecule had a survival of 1%.
In the same order, the values of `CC1(C)CC(=O)C2=C(C1)Nc1ccccc1NC2c1ccc(-c2ccccc2)cc1` (stereo not drawn) are 1% (inactive), 45% and 0%.
In the same order, the values of `COc1ccc(C2CC(=O)C3=C(C2)Nc2ccccc2NC3c2cccc(Br)c2)cc1OC` (stereo not drawn) are 7% (inactive), 67% and 0%.
In the same order, the values of `CCCOc1ccc(C2Nc3ccccc3NC3=C2C(=O)CC(c2ccc(OC)c(OC)c2)C3)cc1` (stereo not drawn) are 20% (inactive), 62% and 1%.
Take `COc1ccc(C2CC(=O)C3=C(C2)Nc2ccccc2NC3c2ccccc2C(F)(F)F)cc1OC` (stereo not drawn): the survival is 12% (inactive). The molecule further yielded a survival under setting [1] of 55%. For the same molecule, under setting [2], the survival was 1%.
In the same order, the values of `CCOc1cccc(C2Nc3ccccc3NC3=C2C(=O)CC(c2ccc(OC)cc2)C3)c1` (stereo not drawn) are 1% (inactive), 83% and 0%.
In the same order, the values of `O=C1CC(c2ccccc2)CC2=C1C(c1c(F)cccc1Cl)Nc1ccccc1N2` (stereo not drawn) are 10% (inactive), 87% and 1%.
